From patent publication EP2982368A1, “Small molecule compounds displacing focal adhesion core components” (Universität Konstanz, priority 2014, dated 2016) come the findings set out here.

One assay relates to focal adhesion proteins. Briefly: Localization of focal adhesion proteins (fluorescent fusion proteins) in presence of Mb31. It is filed as cell-based, Mouse. As to conditions: 10 µM Mb31, 30 min; value is the protein. As to the method:
In order to investigate the kinetics of FAK displacement at focal adhesions a time series was performed. GFP-FAK MEFs were treated with 20 µM of Mb31 or Mb36 and fixed after different time points. […] Mb36 kinetic was slightly slower with FAK delocalization after 20 min. In addition, GFP-FAK MEFs were treated with increasing concentrations of Mb31 or Mb36 to determine the minimum concentration required to interfere with FAK localization. Untreated or solvent (DMSO) treated cells show the expected localization of FAK at focal adhesions. […] Already 2 µM of Mb31 were sufficient to induce FAK displacement. […] Due to the faster kinetic and lower IC50 compared to Mb36 further studies were mainly performed using Mb31. […] In contrast, vinculin localization and the focal adhesion localization of talin, α-actinin, and zyxin is not disturbed (Figure 5 and Table 1).
Mouse embryonic fibroblasts expressing the indicated proteins as fluorescent fusion proteins were incubated with 10 µM Mb31 or solvent alone for 30 min. Afterwards, the cells were fixed and the localization of the focal adhesion proteins was analyzed microscopically.

The target of the next assay is T1, FAK (Mus musculus, UniProt P34152).
T1 construct: expressed in transfected cells; host or cells: FAK-/- (p53-/-) mouse embryonic fibroblasts stably re-expressing GFP-FAK
T1 sequence (P34152 whole entry): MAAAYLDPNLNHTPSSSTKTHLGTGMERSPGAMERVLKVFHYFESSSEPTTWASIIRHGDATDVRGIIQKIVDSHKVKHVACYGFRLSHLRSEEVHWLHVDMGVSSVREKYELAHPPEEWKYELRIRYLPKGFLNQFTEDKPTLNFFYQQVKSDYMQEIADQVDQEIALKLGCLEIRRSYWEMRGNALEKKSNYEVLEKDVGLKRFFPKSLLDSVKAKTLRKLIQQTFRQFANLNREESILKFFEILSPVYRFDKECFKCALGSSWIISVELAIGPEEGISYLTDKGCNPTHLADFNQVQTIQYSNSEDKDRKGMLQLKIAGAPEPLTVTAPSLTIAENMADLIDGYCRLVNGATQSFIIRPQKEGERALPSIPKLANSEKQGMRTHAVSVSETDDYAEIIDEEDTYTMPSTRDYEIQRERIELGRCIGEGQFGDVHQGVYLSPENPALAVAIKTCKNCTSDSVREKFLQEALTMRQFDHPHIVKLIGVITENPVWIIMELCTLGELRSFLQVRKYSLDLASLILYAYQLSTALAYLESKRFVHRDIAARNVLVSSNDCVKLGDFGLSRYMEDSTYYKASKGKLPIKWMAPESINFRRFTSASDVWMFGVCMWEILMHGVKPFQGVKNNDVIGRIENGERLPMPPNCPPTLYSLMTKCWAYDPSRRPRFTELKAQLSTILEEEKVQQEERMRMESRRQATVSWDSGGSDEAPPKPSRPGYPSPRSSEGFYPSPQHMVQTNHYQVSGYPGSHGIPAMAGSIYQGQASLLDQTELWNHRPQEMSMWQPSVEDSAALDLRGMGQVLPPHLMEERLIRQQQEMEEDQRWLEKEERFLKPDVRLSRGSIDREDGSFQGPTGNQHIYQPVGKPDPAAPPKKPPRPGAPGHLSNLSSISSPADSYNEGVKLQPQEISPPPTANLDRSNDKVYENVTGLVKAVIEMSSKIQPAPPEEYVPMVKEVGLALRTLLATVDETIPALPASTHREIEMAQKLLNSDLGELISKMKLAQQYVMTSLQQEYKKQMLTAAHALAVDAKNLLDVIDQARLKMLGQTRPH
Briefly: Reversibility of FAK displacement after compound washout. It is filed as cell-based. The note with it: 4 µM for 1 h. As to the method: In order to analyze whether FAK or its binding partner paxillin are degraded after displacement, serum-starved GFP-FAK MEFs were stimulated with normal growth medium in presence of increasing concentrations of Mb31. After 30 min cells were lysed and protein levels were determined by immunoblotting. […] In line with this, in vitro activity of purified FAK kinase domain was not altered in presence of Mb31 (Figure 8). […] Considering, that paxillin and FAK are not degraded in Mb31 treated GFP-FAK MEFs the inventors further investigated whether FAK displacement is reversible. GFP-FAK MEFs were seeded on fibronectin and treated with 4 µM Mb31 for 1 h. Following compound washout, cells were incubated for 1 h and fixed. […] To strengthen the hypothesis of FAK relocalization, in a second approach de novo protein synthesis was blocked with cycloheximide. Again, FAK containing focal adhesions could be clearly identified in the cell periphery.
MEFs were seeded on fibronectin fragment (4 µg/ml in PBS) in multi-well plates (Greiner Bio-One) and incubated for 4 h to allow spreading. Cells were fixed and permeabilized with MeOH at -20°C after pre-fixation with 4% paraformaldehyde. […] Cells were washed again with PBS to remove excess antibodies and were imaged using a Leica AF6000LX fluorescence microscope. […]

Entries after “also recorded” stand apart in the source; their conditions may differ.

Turning to `O=[N+]([O-])C=Cc1cc(Br)cs1` [FootLocker 1, 4-bromo-2-(2-nitrovinyl)thiophene], in the assay on focal adhesion proteins, the “Displaced from focal adhesions” value is “Focal adhesion kinase (FAK) and Paxillin and Grb2 and CRKII”; the “No effect on localization” value is reported as “Talin; also recorded: α-actinin; also recorded: Vinculin; also recorded: Zyxin”. In addition, the “FAK displacement in treated cells” value at FAK (before washout) is listed as “completely displaced”. For the same molecule, the “FAK localization after compound washout” value at FAK (washout, 1 h incubation) is “FAK relocalized to focal adhesions”.
